Source: ChEMBL document CHEMBL3872249, “Computer design, synthesis, and bioactivity analyses of drugs like fingolimod used in the treatment of multiple sclerosis” (Bioorg Med Chem, 2017)
The source made the active and inactive calls. The calls are words filed in the database; no cut-off is given here.

Key:
U-118-MG [1] = experiment: Effect on IL6 mRNA expression in human U118MG cells at EC10 by qPCR method relative to beta-actin; format: functional
U-118-MG [2] = experiment: Effect on PMP22 mRNA expression in human U118MG cells at EC10 by qPCR method relative to beta-actin; format: functional
SH-SY5Y [3] = experiment: Effect on TNFRSF1A mRNA expression in human SH-SY5Y cells at EC10 by qPCR method relative to beta-actin; format: functional
SK-N-SH [4] = experiment: Effect on ADORA2A mRNA expression in human SK-N-SH cells at EC10 by qPCR method relative to beta-actin; format: functional
U-118-MG [5] = experiment: Effect on ADCY5 mRNA expression in human U118MG cells at EC10 by qPCR method relative to beta-actin; format: functional
[6] = Cytotoxicity against human SK-N-SH cells measured after 24 hrs by crystal-violet staining based assay; format: toxicity, cell-based
SH-SY5Y [7] = experiment: Effect on CXCL10 mRNA expression in human SH-SY5Y cells at EC10 by qPCR method relative to beta-actin; format: functional
SH-SY5Y [8] = experiment: Effect on TNF mRNA expression in human SH-SY5Y cells at EC10 by qPCR method relative to beta-actin; format: functional
SH-SY5Y [9] = experiment: Effect on VCAM1 mRNA expression in human SH-SY5Y cells at EC10 by qPCR method relative to beta-actin; format: functional
U-118-MG [10] = experiment: Effect on ADORA2A mRNA expression in human U118MG cells at EC10 by qPCR method relative to beta-actin; format: functional
SK-N-SH [11] = experiment: Effect on CXCL10 mRNA expression in human SK-N-SH cells at EC10 by qPCR method relative to beta-actin; format: functional
SK-N-SH [12] = experiment: Effect on IL10 mRNA expression in human SK-N-SH cells at EC10 by qPCR method relative to beta-actin; format: functional
SK-N-SH [13] = experiment: Effect on CCL2 mRNA expression in human SK-N-SH cells at EC10 by qPCR method relative to beta-actin; format: functional
[14] = Cytotoxicity against human U118MG cells measured after 24 hrs by crystal-violet staining based assay; format: toxicity, cell-based; details: u-118-mg
SH-SY5Y [15] = experiment: Effect on CCL2 mRNA expression in human SH-SY5Y cells at EC10 by qPCR method relative to beta-actin; format: functional
U-118-MG [16] = experiment: Effect on IL10 mRNA expression in human U118MG cells at EC10 by qPCR method relative to beta-actin; format: functional
SH-SY5Y [17] = experiment: Effect on ICAM1 mRNA expression in human SH-SY5Y cells at EC10 by qPCR method relative to beta-actin; format: functional
U-118-MG [18] = experiment: Effect on NFKB1 mRNA expression in human U118MG cells at EC10 by qPCR method relative to beta-actin; format: functional
[19] = biological target: Sphingosine 1-phosphate receptor 1 (Homo sapiens) (UniProt P21453); experiment: Agonist activity at sphingosine-1-phosphate receptor (unknown origin) expressed in HEK293 cells assessed as increase in cAMP level at EC10 after 18 hrs by CRE-responsive renilla luciferase reporter gene assay; format: functional, cell-based
Sequence of Sphingosine 1-phosphate receptor 1 (Homo sapiens) (P21453 whole entry): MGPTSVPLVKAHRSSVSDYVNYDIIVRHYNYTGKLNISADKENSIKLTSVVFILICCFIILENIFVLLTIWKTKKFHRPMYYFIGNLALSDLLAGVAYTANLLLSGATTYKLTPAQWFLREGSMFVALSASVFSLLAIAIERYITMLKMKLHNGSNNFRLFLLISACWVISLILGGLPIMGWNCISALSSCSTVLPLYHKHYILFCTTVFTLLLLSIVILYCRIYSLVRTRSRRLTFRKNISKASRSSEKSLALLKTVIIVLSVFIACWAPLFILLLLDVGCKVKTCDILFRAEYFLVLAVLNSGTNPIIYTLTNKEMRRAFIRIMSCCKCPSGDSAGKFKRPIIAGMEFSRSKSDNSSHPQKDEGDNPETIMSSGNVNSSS

SH-SY5Y [20] = experiment: Effect on IL6 mRNA expression in human SH-SY5Y cells at EC10 by qPCR method relative to beta-actin; format: functional
SK-N-SH [21] = experiment: Effect on PMP22 mRNA expression in human SK-N-SH cells at EC10 by qPCR method relative to beta-actin; format: functional
U-118-MG [22] = experiment: Effect on GNAS mRNA expression in human U118MG cells at EC10 by qPCR method relative to beta-actin; format: functional
SK-N-SH [23] = experiment: Effect on EPHA1 mRNA expression in human SK-N-SH cells at EC10 by qPCR method relative to beta-actin; format: functional
[24] = biological target: Sphingosine 1-phosphate receptor 1 (Homo sapiens) (UniProt P21453); experiment: Agonist activity at sphingosine-1-phosphate receptor in human SH-SY5Y cells assessed as increase in cAMP level at EC10 by direct immunoassay; format: functional, cell-based
U-118-MG [25] = experiment: Effect on S1PR1 mRNA expression in human U118MG cells at EC10 by qPCR method relative to beta-actin; format: functional
SH-SY5Y [26] = experiment: Effect on IL10 mRNA expression in human SH-SY5Y cells at EC10 by qPCR method relative to beta-actin; format: functional
SK-N-SH [27] = experiment: Effect on GNAS mRNA expression in human SK-N-SH cells at EC10 by qPCR method relative to beta-actin; format: functional
SK-N-SH [28] = experiment: Effect on IL6 mRNA expression in human SK-N-SH cells at EC10 by qPCR method relative to beta-actin; format: functional
SK-N-SH [29] = experiment: Effect on DRD2 mRNA expression in human SK-N-SH cells at EC10 by qPCR method relative to beta-actin; format: functional
SK-N-SH [30] = experiment: Effect on TNF mRNA expression in human SK-N-SH cells at EC10 by qPCR method relative to beta-actin; format: functional
SH-SY5Y [31] = experiment: Effect on ADORA2A mRNA expression in human SH-SY5Y cells at EC10 by qPCR method relative to beta-actin; format: functional
SK-N-SH [32] = experiment: Effect on TNFRSF1A mRNA expression in human SK-N-SH cells at EC10 by qPCR method relative to beta-actin; format: functional
SH-SY5Y [33] = experiment: Effect on MMP9 mRNA expression in human SH-SY5Y cells at EC10 by qPCR method relative to beta-actin; format: functional
SK-N-SH [34] = experiment: Effect on NFKB1 mRNA expression in human SK-N-SH cells at EC10 by qPCR method relative to beta-actin; format: functional
[35] = biological target: Sphingosine 1-phosphate receptor 1 (Homo sapiens) (UniProt P21453); experiment: Agonist activity at sphingosine-1-phosphate receptor in human U118MG cells assessed as increase in cAMP level at EC10 by direct immunoassay; format: functional, cell-based; details: U-118-MG
SH-SY5Y [36] = experiment: Effect on DRD2 mRNA expression in human SH-SY5Y cells at EC10 by qPCR method relative to beta-actin; format: functional
[37] = Cytotoxicity against human SH-SY5Y cells measured after 24 hrs by crystal-violet staining based assay; format: toxicity, cell-based
SH-SY5Y [38] = experiment: Effect on GNAS mRNA expression in human SH-SY5Y cells at EC10 by qPCR method relative to beta-actin; format: functional
U-118-MG [39] = experiment: Effect on MMP9 mRNA expression in human U118MG cells at EC10 by qPCR method relative to beta-actin; format: functional
[40] = biological target: Sphingosine 1-phosphate receptor 1 (Homo sapiens) (UniProt P21453); experiment: Agonist activity at sphingosine-1-phosphate receptor human SK-N-SH cells assessed as increase in cAMP level at EC10 by direct immunoassay; format: functional, cell-based
SK-N-SH [41] = experiment: Effect on ADCY5 mRNA expression in human SK-N-SH cells at EC10 by qPCR method relative to beta-actin; format: functional
SK-N-SH [42] = experiment: Effect on S1PR1 mRNA expression in human SK-N-SH cells at EC10 by qPCR method relative to beta-actin; format: functional
SH-SY5Y [43] = experiment: Effect on S1PR1 mRNA expression in human SH-SY5Y cells at EC10 by qPCR method relative to beta-actin; format: functional
U-118-MG [44] = experiment: Effect on VCAM1 mRNA expression in human U118MG cells at EC10 by qPCR method relative to beta-actin; format: functional

CCCCCCCCn1nnnc1CCC(N)(CO)CO.Cl
fold change (FC) (U-118-MG [1]): -4.7651
fold change (FC) (U-118-MG [2]): -5.1248
fold change (FC) (SH-SY5Y [3]): -6.2787
fold change (FC) (SK-N-SH [4]): -5.915
fold change (FC) (U-118-MG [5]): -5.787
EC10 [6]: 370 nM
fold change (FC) (SH-SY5Y [7]): -3.4279
fold change (FC) (SH-SY5Y [8]): -3.2642
fold change (FC) (SH-SY5Y [9]): -5.2706
fold change (FC) (U-118-MG [10]): -5.0641
fold change (FC) (SK-N-SH [11]): -4.7219
fold change (FC) (SK-N-SH [12]): -7.7375
fold change (FC) (SK-N-SH [13]): -8.981
EC10 [14]: 540 nM
fold change (FC) (SH-SY5Y [15]): -3.0787
fold change (FC) (U-118-MG [16]): -2.5669
fold change (FC) (SH-SY5Y [17]): -7.3035
fold change (FC) (U-118-MG [18]): -2.6004
Activity [19]: Active
fold change (FC) (SH-SY5Y [20]): -4.4551
fold change (FC) (SK-N-SH [21]): -4.1464
fold change (FC) (U-118-MG [22]): -2.9212
fold change (FC) (SK-N-SH [23]): -7.9001
Activity [24]: Active
fold change (FC) (U-118-MG [25]): -4.1312
fold change (FC) (SH-SY5Y [26]): -7.3448
fold change (FC) (SK-N-SH [27]): -7.631
fold change (FC) (SK-N-SH [28]): -11.9743
fold change (FC) (SK-N-SH [29]): -3.8822
fold change (FC) (SK-N-SH [30]): -7.8456
fold change (FC) (SH-SY5Y [31]): -6.5966
fold change (FC) (SK-N-SH [32]): -3.6537
fold change (FC) (SH-SY5Y [33]): -5.7901
fold change (FC) (SK-N-SH [34]): -6.9253
Activity [35]: Active
fold change (FC) (SH-SY5Y [36]): -3.3881
EC10 [37]: 450 nM
fold change (FC) (SH-SY5Y [38]): -8.1531
fold change (FC) (U-118-MG [39]): -4.4691
Activity [40]: Active
fold change (FC) (SK-N-SH [41]): -4.4983
fold change (FC) (SK-N-SH [42]): -4.3001
fold change (FC) (SH-SY5Y [43]): -4.2848
fold change (FC) (U-118-MG [44]): -3.8654
